Data taken from patent publication US20100311790A1 (priority 2007, published 2010).

How the values were obtained:
Sclerotinia sclerotiorum = experiment: Test Examples 2 and 3: preventive effect on Sclerotinia rot disease of cucumber, foliar spray; assay type: in vivo; settings: cucumber (Sagami Hanjiro), flowable formulation diluted to 200 ppm, foliar spray before inoculation, 18° C. for 4 days under high humidity
Description: (§1) The area of lesions on the test plants at testing was visually observed, and the control effect was evaluated by comparing the area of lesions on test plants treated with the invented compound with the area of lesions on untreated plants.
Test for Showing Preventive Effect on Sclerotinia Rot Disease of Cucumber (Sclerotinia sclerotiorum)
Sand soil was packed in a plastic pot, and seeds of cucumber (variety: Sagami Hanjiro) were sowed therein and grown for 12 days in a greenhouse. […] After spraying, the plant was air-dried and PDA medium containing hyphae of Sclerotinia sclerotiorum was placed on the surface of leaves of the cucumber. After the inoculation, the plant was left at 18° C. for 4 days under high humidity, area of lesions was examined. As a result, the lesion area on the plant treated with the invented compounds (1), (3)-(27) and (28) was less than 10% of the lesion area on the untreated plant.
Sand soil was packed in a plastic pot, and seeds of cucumber (variety: Sagami Hanjiro) were sowed therein and grown for 12 days in a greenhouse. The invented compound (2) was formulated into flowable formulation in accordance with Formulation Example 6, and it was diluted with water to a given concentration (200 ppm) and was sprayed onto the foliage of the cucumber so that a sufficient amount of the compound would be applied to the surface of leaves of the cucumber. […]

Botrytis cinerea = experiment: Test Example 1: preventive effect on Botrytis disease of cucumber, foliar spray; assay type: in vivo; settings: cucumber (Sagami Hanjiro), flowable formulation diluted to 13 ppm, foliar spray before inoculation, 12° C. for 5 days under high humidity
Description: as §1
Test for Showing Preventive Effect on Botrytis Disease of Cucumber (Botrytis cinerea)
Sand soil was packed in a plastic pot, and seeds of cucumber (variety: Sagami Hanjiro) were sowed therein and grown for 12 days in a greenhouse. Each of the invented compounds (2), (3), (7), (11), (12), (15), (16), (18), (19), (21), (23), (24) and (27) and the comparative compound (A) was formulated into flowable formulation in accordance with Formulation Example 6, and it was diluted with water to a given concentration (13 ppm) and was sprayed onto the foliage of the cucumber so that a sufficient amount of the compound would be applied to the surface of leaves of the cucumber. After spraying, the plant was air-dried and PDA medium containing spores of Botrytis cinerea was placed on the surface of leaves of the cucumber. After the inoculation, the plant was left at 12° C. for 5 days under high humidity, and then the area of lesions was examined. As a result, the lesion area on the plant treated with the invented compounds (2), (3), (7), (11), (12), (15), (16), (18), (19), (21), (23), (24) and (27) was less than 30% of the lesion area on the untreated plant. […]

SMILES | lesion area on the treated plant as % of the lesion area on the untreated plant (Sclerotinia sclerotiorum) | lesion area on the treated plant as % of the lesion area on the untreated plant (Botrytis cinerea)
C=CCCOc1cccc(CNC(=O)c2ccc3ncccc3c2)c1F [(2)] | less than 10% | 
CC(C)=CCOc1cccc(CNC(=O)c2ccc3ncccc3c2)c1 [comparative compound (A), N-[3-(3-methyl-2-butenyloxy)phenyl]methyl-quinoline-6-carboxamide] |  | 98%
